Assay results reported in the NIST ThermoML archive (doi:10.1021/je200682t).

Experiment: relative permittivity at zero frequency (dimensionless)
Conditions: 101.33 kPa, Liquid, Parallel plate capacitor

O=C1CCC1 [cyclobutanone]
Conditions | relative permittivity at zero frequency
243.15 K | 17.96
245.65 K | 17.81
248.15 K | 17.66
250.65 K | 17.51
253.15 K | 17.37
255.65 K | 17.22
258.15 K | 17.07
260.65 K | 16.93
263.15 K | 16.79
265.65 K | 16.65
268.15 K | 16.51
270.65 K | 16.37
273.15 K | 16.24
275.65 K | 16.11
278.15 K | 15.98
280.65 K | 15.85
283.15 K | 15.72
285.65 K | 15.58
288.15 K | 15.46
290.65 K | 15.33
293.15 K | 15.2
295.65 K | 15.08
298.15 K | 14.96
300.65 K | 14.84
303.15 K | 14.72
305.65 K | 14.6
308.15 K | 14.48
310.65 K | 14.37
313.15 K | 14.25

O=C1CCCCCC1 [cycloheptanone]
Conditions | relative permittivity at zero frequency
245.65 K | 15.35
248.15 K | 15.22
250.65 K | 15.09
253.15 K | 14.97
255.65 K | 14.85
258.15 K | 14.72
260.65 K | 14.57
263.15 K | 14.47
265.65 K | 14.36
268.15 K | 14.25
270.65 K | 14.14
273.15 K | 14.03
275.65 K | 13.91
278.15 K | 13.8
280.65 K | 13.69
283.15 K | 13.58
285.65 K | 13.46
288.15 K | 13.35
290.65 K | 13.25
293.15 K | 13.14
295.65 K | 13.03
298.15 K | 12.92
300.65 K | 12.82
303.15 K | 12.72
305.65 K | 12.62
308.15 K | 12.51
310.65 K | 12.41
313.15 K | 12.32

O=C1CCCCC1 [cyclohexanone]
Conditions | relative permittivity at zero frequency
243.15 K | 19.75
245.65 K | 19.54
248.15 K | 19.34
250.65 K | 19.13
253.15 K | 18.93
255.65 K | 18.73
258.15 K | 18.54
260.65 K | 18.34
263.15 K | 18.15
265.65 K | 17.96
268.15 K | 17.78
270.65 K | 17.6
273.15 K | 17.42
275.65 K | 17.24
278.15 K | 17.07
280.65 K | 16.9
283.15 K | 16.73
285.65 K | 16.56
288.15 K | 16.4
290.65 K | 16.24
293.15 K | 16.08
295.65 K | 15.92
298.15 K | 15.77
300.65 K | 15.62
303.15 K | 15.46
305.65 K | 15.32
308.15 K | 15.17
310.65 K | 15.03
313.15 K | 14.89

O=C1CCCCCCC1 [cyclooctanone]
Conditions | relative permittivity at zero frequency
298.15 K | 14.54
303.15 K | 14.22
305.65 K | 14.05
308.15 K | 13.89
310.65 K | 13.74
313.15 K | 13.57
315.65 K | 13.42
318.15 K | 13.27
320.65 K | 13.14
323.15 K | 12.99
325.65 K | 12.85
328.15 K | 12.71
330.65 K | 12.58
333.15 K | 12.44
335.65 K | 12.3
338.15 K | 12.17
340.65 K | 12.04
343.15 K | 11.9

O=C1CCCC1 [cyclopentanone]
Conditions | relative permittivity at zero frequency
243.15 K | 15.66
245.65 K | 15.56
248.15 K | 15.46
250.65 K | 15.36
253.15 K | 15.26
255.65 K | 15.15
258.15 K | 15.05
260.65 K | 14.95
263.15 K | 14.85
265.65 K | 14.75
268.15 K | 14.65
270.65 K | 14.55
273.15 K | 14.45
275.65 K | 14.35
278.15 K | 14.25
280.65 K | 14.15
283.15 K | 14.06
285.65 K | 13.96
288.15 K | 13.86
290.65 K | 13.77
293.15 K | 13.67
295.65 K | 13.58
298.15 K | 13.49
300.65 K | 13.39
303.15 K | 13.3
305.65 K | 13.22
308.15 K | 13.13
310.65 K | 13.04
313.15 K | 12.95
